According to ChEMBL document CHEMBL1201862, “PubChem BioAssay data set” (2004):
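Assay format: 96-well plates, 48-hour exposure. Here, GI50 denotes the concentration required for 50% inhibition of growth.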 Activity calls are given as the source filed them. Cut-off read from the data, not from the text of the source: active = GI50 up to about 1.1 µM and inactive = higher.

What was measured:
Assay in all cases: NCI anticancer screen, dose series, 48 h
A549 = tested on: A549
EKVX = tested on: EKVX
HCC 2998 = tested on: HCC 2998
HL-60 = tested on: HL-60
HT-29 = tested on: HT-29
IGROV-1 = tested on: IGROV-1
KM12 = tested on: KM12
M14 = tested on: M14
OVCAR-3 = tested on: OVCAR-3
OVCAR-4 = tested on: OVCAR-4
SK-MEL-5 = tested on: SK-MEL-5
SR = tested on: SR
SW-620 = tested on: SW-620
U-251 = tested on: U-251
UO-31 = tested on: UO-31
HOP-92 = tested on: HOP-92
SF-295 = tested on: SF-295
A498 = tested on: A498

Measured: GI50

CCN(CC)C(=O)c1cc(OC(C)C)ccc1-c1c(C)cc(OC(C)C)c(OC)c1OC
inactive: A549 48.6 µM | EKVX 60.7 µM | HCC 2998 46.3 µM | HL-60 45.9 µM | HT-29 38 µM | IGROV-1 > 100 µM | KM12 57.8 µM | M14 79.4 µM | OVCAR-3 71 µM | OVCAR-4 47.5 µM | SK-MEL-5 35.6 µM | SR 33.6 µM | SW-620 98.4 µM | U-251 63 µM | UO-31 86.3 µM

O=C1CN2C(Cl)(Cl)C2(c2ccccc2)c2cc(Cl)ccc2N1CC1CC1 (stereo not drawn)
inactive: EKVX 31.8 µM | HCC 2998 18.7 µM | HOP-92 12.3 µM | HT-29 17.3 µM | KM12 16.6 µM | M14 20.1 µM | OVCAR-3 19.6 µM | OVCAR-4 30.3 µM | SF-295 9.46 µM | SK-MEL-5 20.2 µM | SR 29.2 µM | SW-620 29.6 µM | U-251 19.1 µM | UO-31 26 µM

COc1ccc(C2N(NC(=O)c3ccncc3)C(=O)CS2(=O)=O)cc1F (stereo not drawn)
inactive: A498 > 100 µM | A549 > 100 µM | HCC 2998 > 100 µM | HL-60 > 100 µM | HOP-92 > 100 µM | HT-29 > 100 µM | KM12 > 100 µM | M14 > 100 µM | OVCAR-4 > 100 µM | SF-295 > 100 µM | SK-MEL-5 > 100 µM | SR > 100 µM | SW-620 > 100 µM | U-251 > 100 µM

O=c1ccc2cc3ccc4cccc5ccc(c2o1)c3c45
inactive: A498 16 µM | EKVX > 100 µM | HL-60 > 100 µM | HOP-92 5.24 µM | HT-29 22.2 µM | IGROV-1 > 100 µM | M14 > 100 µM | OVCAR-3 > 10 µM | SF-295 33 µM | SK-MEL-5 40.4 µM | SW-620 31.8 µM | U-251 13.1 µM | UO-31 14.3 µM

COc1cc(C2C(=O)C(Cl)N2Nc2nc(C)cc(O)n2)cc(OC)c1OC (stereo not drawn)
inactive: A549 27.9 µM | EKVX 33.3 µM | HCC 2998 12.9 µM | HL-60 9.84 µM | HOP-92 16.9 µM | HT-29 23.8 µM | IGROV-1 10.1 µM | KM12 19 µM | M14 12.5 µM | OVCAR-3 4.91 µM | OVCAR-4 16.1 µM | SK-MEL-5 12.9 µM | SR 11.6 µM | SW-620 22.2 µM | U-251 13.3 µM | UO-31 13.4 µM

CC(=O)N/C(=C\c1ccc(Cc2nc3c([nH]2)C(=O)c2ccccc2C3=O)cc1)c1nc2c([nH]1)C(=O)c1ccccc1C2=O
inactive: A498 > 100 µM | A549 > 100 µM | EKVX > 100 µM | HCC 2998 > 100 µM | HL-60 > 100 µM | HOP-92 > 100 µM | HT-29 > 100 µM | IGROV-1 > 100 µM | KM12 > 100 µM | M14 > 100 µM | OVCAR-3 > 100 µM | OVCAR-4 > 100 µM | SF-295 > 100 µM | SK-MEL-5 > 100 µM | SW-620 > 100 µM | U-251 78.5 µM | UO-31 > 100 µM

C=CCNC(=O)N(CCC)CCCCC(NC(C)=O)C(=O)NCc1ccccc1 (stereo not drawn)
inactive: A498 > 100 µM | A549 > 100 µM | EKVX > 100 µM | HCC 2998 > 100 µM | HL-60 > 100 µM | HOP-92 > 100 µM | HT-29 > 100 µM | IGROV-1 > 100 µM | KM12 > 100 µM | M14 > 100 µM | OVCAR-3 > 100 µM | OVCAR-4 > 100 µM | SF-295 > 100 µM | SK-MEL-5 > 100 µM | SW-620 > 100 µM | U-251 > 100 µM | UO-31 > 100 µM

CC12CCCCC1C(=O)C2(Cl)Cl (stereo not drawn)
inactive: A498 3.94 µM | A549 3.18 µM | EKVX 2.76 µM | HCC 2998 1.79 µM | HL-60 1.76 µM | HOP-92 1.69 µM | HT-29 1.3 µM | IGROV-1 2.96 µM | KM12 1.79 µM | M14 2.03 µM | OVCAR-3 1.77 µM | OVCAR-4 3.49 µM | SF-295 1.66 µM | SK-MEL-5 1.83 µM | SW-620 2.05 µM | U-251 2.21 µM | UO-31 2.18 µM

O=C(N/N=C/C=C/c1ccccc1)[C@H](O)[C@@H](O)C(=O)N/N=C/C=C/c1ccccc1
inactive: A498 > 100 µM | A549 > 100 µM | EKVX > 100 µM | HCC 2998 > 100 µM | HL-60 > 100 µM | IGROV-1 > 100 µM | KM12 > 100 µM | SF-295 > 100 µM | SK-MEL-5 > 100 µM | SR > 100 µM | SW-620 > 100 µM | U-251 > 100 µM | UO-31 > 100 µM

O=C1CCC(c2ccccc2)=NN1c1nsc2ccccc12
inactive: A549 > 100 µM | EKVX 82.6 µM | HCC 2998 60.8 µM | HL-60 > 100 µM | HOP-92 > 100 µM | HT-29 > 100 µM | IGROV-1 97.9 µM | KM12 > 100 µM | M14 > 100 µM | OVCAR-3 83.8 µM | OVCAR-4 > 100 µM | SK-MEL-5 > 100 µM | SR 58.9 µM | SW-620 > 100 µM | U-251 > 100 µM | UO-31 > 100 µM

Cc1cc2c(ccc[n+]2[O-])[n+]([O-])c1
inactive: A549 > 100 µM | EKVX > 100 µM | HCC 2998 > 100 µM | HL-60 > 100 µM | HOP-92 > 100 µM | HT-29 > 100 µM | IGROV-1 > 100 µM | KM12 > 100 µM | M14 > 100 µM | OVCAR-3 > 100 µM | OVCAR-4 > 100 µM | SF-295 > 100 µM | SK-MEL-5 > 100 µM | SR > 100 µM | SW-620 > 100 µM | U-251 > 100 µM | UO-31 > 100 µM

COc1cc2ccc(CC(N)=O)cc2cc1OC
inactive: A549 > 100 µM | EKVX > 100 µM | HOP-92 > 100 µM | HT-29 > 100 µM | IGROV-1 > 100 µM | KM12 > 100 µM | M14 > 100 µM | OVCAR-3 > 100 µM | OVCAR-4 > 100 µM | SF-295 > 100 µM | SK-MEL-5 > 100 µM | SW-620 > 100 µM | U-251 > 100 µM | UO-31 > 100 µM

Clc1ccc(-c2nnc(-c3nsc4ccccc34)o2)cc1
inactive: A549 40.6 µM | EKVX 14.2 µM | HCC 2998 24.9 µM | HOP-92 17.9 µM | HT-29 25.9 µM | IGROV-1 18.5 µM | KM12 51.5 µM | M14 47.2 µM | OVCAR-3 14 µM | OVCAR-4 14.2 µM | SK-MEL-5 31.3 µM | SR > 10 µM | SW-620 50.5 µM | U-251 15.2 µM | UO-31 18.8 µM
